From patent US20250154163A1, “Pyrimidinone-Containing 17-Beta-Hydroxysteroid Dehydrogenase Type 13 Inhibitors” (ENANTA PHARMACEUTICALS, INC., priority 2023, published 2025)

Biological target: T1, human HSD17β13 (stable HEK293T cell line overexpressing human HSD17β13) (Homo sapiens, UniProt Q7Z5P4)
T1 construct: expressed in transfected cells
T1 sequence (Q7Z5P4 20-300): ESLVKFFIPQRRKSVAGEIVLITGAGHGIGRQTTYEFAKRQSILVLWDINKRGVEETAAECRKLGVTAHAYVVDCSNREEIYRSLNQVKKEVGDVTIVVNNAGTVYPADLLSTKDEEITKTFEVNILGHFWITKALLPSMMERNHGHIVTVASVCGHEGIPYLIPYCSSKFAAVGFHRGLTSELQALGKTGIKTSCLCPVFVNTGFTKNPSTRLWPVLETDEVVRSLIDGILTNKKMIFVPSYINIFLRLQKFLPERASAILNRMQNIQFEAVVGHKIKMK
Experiment: HSD17β13 inhibitor cell-based screening assay (conversion of estradiol-d2 to estrone-d2 by RF-MS)
Conditions: conversion of estradiol-d2 to estrone-d2 after 24 hours
Method: The purpose of this cell-based assay is to determine the cellular efficacy (IC50) of HSD17β13 inhibitors in a stable HEK293 T cell line overexpressing human HSD17β13. The assay measures by Rapid Fire mass-spectrometry (RF-MS) the conversion of estradiol-d2 to estrone-d2. Cytotoxicity was also assessed via luminescent signal generated by the ATPlite viability assay reagent. To screen compounds for HSD17013 inhibition, black 384-well plates were seeded with 1000× concentration of compounds in a 9-point 1:3 dilution curve (final top concentration of 10 μM) as well as 1000× concentration of 17β-estradiol-d2 (5 μM final concentration) added to all wells. HEK293T cells stably overexpressing human HSD17013 and the parent HEK293T cell lines were then seeded in the plates on top of the compounds and substrate in MEM media containing 1% charcoal/dextran-treated FBS. Supernatant is collected and immediately frozen after 24 hours of incubation, and conversion of estradiol-d2 to estrone-d2 is measured at Pure Honey by RF-MS. The remaining media in the plate was removed from the wells and replaced with ATPlite viability assay reagent. Luminescent signal from the ATPlite reagent was measured on the Envision plate reader. 10 μL of 10 mM compounds stocks (1000×) dissolved in DMSO were pipetted into the appropriate wells on the 384 LDV plate (Labcyte; cat. no.: LP-0200) and the appropriate volumes of DMSO solvent were included onto an intermediate plate to further dilute the compound stocks to complete the 9-pt dose curve (final top concentration of 10 μM). 10 μL per well of 5 mM estradiol-d2 (1000×) (Cayman; item no.: 9002846) (5 μM final concentration) dissolved in DMSO was seeded into the appropriate number of wells on the same source plate as the compounds. The Echo 650 (Labcyte) was used for compound dilutions and dispensing both the compounds and the substrate onto a dry 384-well black assay plate (Falcon/Corning; cat. no.:353962). Afterwards, cells were immediately counted and seeded onto the plate. Cells were cultured for expansion in EMEM (ATCC; cat. no.: 30-2003)+10% FBS (Hyclone; cat. no.: SH3007003)+1×PenStrep (Gibco; cat. no.: 15140-122). All media for stable cell line overexpressing HSD17013 also included […] zeocin (Invitrogen; cat. no.: 46-0509) for selection. To prepare cells for seeding into the 384-well assay plate, cells were trypsinized for 3 minutes in the incubator. The Trypsin-EDTA (0.25%) (Gibco; cat. no.: 25200056) was neutralized with EMEM complete culture medium warmed to 37° C. Cells were then centrifugated at 300×g for 5 minutes at room temperature. The cell pellet was resuspended in phenol red-free MEM (Gibco; cat. no.: 51200-038)+1% charcoal/dextran-treated FBS (Hyclone; cat. no.: SH3006803) and 1×PenStrep warmed to 37° C. Cells were then counted using the TC20 automated cell-counter (Bio-Rad) and disposable duel chamber counting slides (Bio-Rad; cat. no.: 1450016) for a cell density of 1.5E5 cells/mL to then seed into the assay plate at 7.5E3 cells/well with 50 μL of media per well. Prior to the 24-hour time point, a solution of 1% formic acid (10×) (Honeywell; cat. no.: 94318) in MEM phenol red-free MEM+1% charcoal/dextran-treated FBS and 1×PenStrep was made. ATPlite luminescent ATP detection reagent (PerkinElmer; cat. no.: 6016739) was prepared according to the manufacturer's instructions. A new 384-well Falcon plate (collection plate) was seeded with 2 μL per well of 10× formic acid and then 18 μL of cell supernatant was added onto the formic acid, resulting in a 20 μL per well solution of 0.1% formic acid (1×) in supernatant. The plate of collected supernatant was immediately frozen on dry ice before being stored at −80° C. The collection plate was shipped to Momentum Biotechnologies for analysis. The remaining supernatant in the assay plate was discarded and 25 μL of ATPlite reagent was added to each well. […]

Row | Structure (SMILES) | IC50
1 | N#Cc1cnc(-c2nc3sc4c(O)c(Cl)ccc4c3c(=O)n2Cc2cc(C(F)(F)F)no2)c(C2CC2)c1 [Example 115] | < 0.1 µM
2 | COc1ccc(-c2nc3sc4c(O)c(Cl)cc(Br)c4c3c(=O)n2Cc2cnco2)c(C2CC2)c1 [Example 222] | 0.1 to 0.5 µM
3 | Cn1cc(Cn2c(-c3cc(F)c(C(F)F)cc3C3CC3)nc3sc4c(O)c(Cl)ccc4c3c2=O)ccc1=O [Example 187] | < 0.1 µM
4 | Cc1cc(Cn2c(-c3cc(F)c(F)cc3C3CC3)nc3sc4c(O)c(Cl)ccc4c3c2=O)on1 [Example 60, 7-chloro-2-(2-cyclopropyl-4,5-difluorophenyl)-8-hydroxy-3-((3-methylisoxazol-5-yl)methyl)benzo[4,5]thieno[2,3-d]pyrimidin-4(3H)-one] | < 0.1 µM
5 | COc1cc(C2CC2)c(-c2nc3sc4c(O)c(Cl)ccc4c3c(=O)n2Cc2cnco2)cc1C1CCCC1 [Example 109, 7-chloro-2-(5-cyclopentyl-2-cyclopropyl-4-methoxyphenyl)-8-hydroxy-3-(oxazol-5-ylmethyl)benzo[4,5]thieno[2,3-d]pyrimidin-4(3H)-one] | 0.5 to 1 µM
6 | O=c1c2c(nc(-c3cc(F)c(F)cc3C3CC3)n1Cc1cn[nH]c1)sc1c(O)c(Cl)ccc12 [Example 215] | < 0.1 µM
7 | COCc1cc(Cn2c(-c3cc(F)c(F)cc3C3CC3)nc3sc4c(O)c(Cl)ccc4c3c2=O)on1 [Example 208] | < 0.1 µM
8 | COc1cccc(-c2nc3sc4c(O)c(Cl)ccc4c3c(=O)n2Cc2cnco2)c1C1CC1 [Example 146] | < 0.1 µM
9 | COc1ccc(-c2nc3sc4c(O)c(Cl)ccc4c3c(=O)n2Cc2ccnc(C(F)(F)F)c2)c(C2CC2)c1 [Example 155] | < 0.1 µM
10 | Cn1ncc2cc(C3CC3)c(-c3nc4sc5c(O)c(Cl)ccc5c4c(=O)n3Cc3cnco3)cc21 [Example 194] | 0.5 to 1 µM
11 | O=c1c2c(nc(-c3cc(F)c(F)cc3C3CC3)n1Cc1ccno1)sc1c(O)c(Cl)ccc12 [Example 62, 7-chloro-2-(2-cyclopropyl-4,5-difluorophenyl)-8-hydroxy-3-(isoxazol-5-ylmethyl)benzo[4,5]thieno[2,3-d]pyrimidin-4(3H)-one] | < 0.1 µM
12 | COc1cc(C2CC2)c(-c2nc3sc4c(O)c(Cl)ccc4c3c(=O)n2Cc2cnco2)cc1C1CC1 [Example 107, 7-chloro-2-(2,5-dicyclopropyl-4-methoxyphenyl)-8-hydroxy-3-(oxazol-5-ylmethyl)benzo[4,5]thieno[2,3-d]pyrimidin-4(3H)-one] | 0.1 to 0.5 µM
13 | Cn1cc(Cn2c(-c3ccc(S(C)(=O)=O)cc3C3CC3)nc3sc4c(O)c(Cl)ccc4c3c2=O)ccc1=O [Example 70, 7-chloro-2-(2-cyclopropyl-4-(methylsulfonyl)phenyl)-8-hydroxy-3-((1-methyl-6-oxo-1,6-dihydropyridin-3-yl)methyl)benzo[4,5]thieno[2,3-d]pyrimidin-4(3H)-one] | < 0.1 µM
14 | O=c1c2c(nc(-c3cc(F)c(F)cc3C3CC3)n1Cc1ccc(C(F)(F)F)nc1)sc1c(O)c(Cl)ccc12 [Example 162] | < 0.1 µM
15 | COc1ccc(-c2nc3sc4c(O)c(Cl)ccc4c3c(=O)n2CCCc2cnco2)c(C2CC2)c1 [Example 189] | < 0.1 µM
16 | CCn1c(=O)c(C)cn(CCn2c(-c3ccc(OC)cc3C3CC3)nc3sc4c(O)c(Cl)ccc4c3c2=O)c1=O [Example 150] | 0.5 to 1 µM
17 | COc1ccc(-c2nc3sc4c(O)c(Cl)cc(F)c4c3c(=O)n2Cc2cnco2)c(C2CC2)c1 [Example 218, 7-chloro-2-(2-cyclopropyl-4-methoxyphenyl)-5-fluoro-8-hydroxy-3-(oxazol-5-ylmethyl)benzo[4,5]thieno[2,3-d]pyrimidin-4(3H)-one] | < 0.1 µM
18 | O=c1c2c(nc(-c3cc(F)c(F)cc3C3CC3)n1Cc1cnc(C(F)(F)F)nc1)sc1c(O)ccc(F)c12 [Example 184] | < 0.1 µM
19 | O=c1c2c(nc(-c3cc(F)c(F)cc3C3CC3)n1Cc1cccnc1)sc1c(O)c(Cl)ccc12 [Example 163] | < 0.1 µM
20 | Cn1ncc2cc(-c3nc4sc5c(O)c(Cl)ccc5c4c(=O)n3Cc3cc(C(F)(F)F)no3)c(C3CC3)cc21 [Example 164] | < 0.1 µM
21 | Cn1cc(Cn2c(-c3cc(F)c(F)cc3C3CC3)nc3sc4c(O)c(Cl)ccc4c3c2=O)cn1 [Example 216] | < 0.1 µM

Next, values leading:

Row | IC50 | Structure (SMILES)
22 | < 0.1 µM | O=c1c2c(nc(-c3cc(C(F)(F)F)ccc3C3CC3)n1Cc1cnco1)sc1c(O)c(Cl)ccc12 [Example 136]
23 | < 0.1 µM | Cn1ncc2cc(-c3nc4sc5c(O)c(Cl)ccc5c4c(=O)n3Cc3cnco3)c(C3CC3)cc21 [Example 142]
24 | < 0.1 µM | COc1ccc(-c2nc3sc4c(O)c(Cl)ccc4c3c(=O)n2Cc2ncc(C)o2)c(C2CC2)c1 [Example 200, 7-chloro-2-(2-cyclopropyl-4-methoxyphenyl)-8-hydroxy-3-((5-methyloxazol-2-yl)methyl)benzo[4,5]thieno[2,3-d]pyrimidin-4(3H)-one]
25 | < 0.1 µM | COc1ccc(-c2nc3sc4c(O)ccc(F)c4c3c(=O)n2Cc2cnco2)c(C2CC2)c1 [Example 55, 2-(2-cyclopropyl-4-methoxyphenyl)-5-fluoro-8-hydroxy-3-(oxazol-5-ylmethyl)benzo[4,5]thieno[2,3-d]pyrimidin-4(3H)-one]
26 | < 0.1 µM | COc1ccc(-c2nc3sc4c(O)c(Cl)ccc4c3c(=O)n2Cc2cnn(C(F)(F)F)c2)c(C2CC2)c1 [Example 201]
27 | < 0.1 µM | O=c1c2c(nc(-c3cc(F)c(C(F)F)cc3C3CC3)n1Cc1ccc(C(F)(F)F)nc1)sc1c(O)c(Cl)ccc12 [Example 181]
28 | < 0.1 µM | O=c1c2c(nc(-c3ccc4cc[nH]c4c3C3CC3)n1Cc1cnco1)sc1c(O)c(Cl)ccc12 [Example 140]
29 | < 0.1 µM | O=c1c2c(nc(-c3cnc(C(F)(F)F)cc3C3CC3)n1Cc1cc(C(F)(F)F)no1)sc1c(O)c(Cl)ccc12 [Example 173]
30 | < 0.1 µM | O=c1c2c(nc(-c3ncc(C(F)F)cc3C3CC3)n1Cc1cnc(C(F)(F)F)nc1)sc1c(O)c(Cl)ccc12 [Example 116, 7-chloro-2-(3-cyclopropyl-5-(difluoromethyl)pyridin-2-yl)-8-hydroxy-3-((2-(trifluoromethyl)pyrimidin-5-yl)methyl)benzo[4,5]thieno[2,3-d]pyrimidin-4(3H)-one]
31 | < 0.1 µM | O=c1c2c(nc(-c3ccc(C(F)F)cc3C3CC3)n1Cc1cnc(C(F)(F)F)nc1)sc1c(O)c(Cl)ccc12 [Example 177]
32 | 0.1 to 0.5 µM | C#CCn1c(-c2ccc(OC)cc2C2CC2)nc2sc3c(O)c(Cl)ccc3c2c1=O [Example 126]
33 | 0.1 to 0.5 µM | COc1ccc(C2=Nc3sc4c(O)c(Cl)ccc4c3C(=O)C2Cc2cc[nH]c(=O)c2)c(C2CC2)c1 (centres unmarked) [Example 157]
34 | < 0.1 µM | CCn1c(=O)c(C)cn(CCCn2c(-c3ccc(OC)cc3C3CC3)nc3sc4c(O)c(Cl)ccc4c3c2=O)c1=O [Example 127]
35 | < 0.1 µM | COc1cc(C2CC2)c(-c2nc3sc4c(O)c(Cl)ccc4c3c(=O)n2Cc2cnco2)cc1Br [Example 104, 2-(5-bromo-2-cyclopropyl-4-methoxyphenyl)-7-chloro-8-hydroxy-3-(oxazol-5-ylmethyl)benzo[4,5]thieno[2,3-d]pyrimidin-4(3H)-one]
